Experimental data from PubChem BioAssay AID1918937 (Molecular Pharmacology Branch, DTP, NCI, 2023).
pIC50: −log10 of the molar value. Where “and” joins values, the source holds several entries; their conditions need not be identical. Equal entries are not always repeated.

Test system: 521955-158-R2-J5-PDC complex spheroid viability
Assay: Anticancer human tumor 521955-158-R2-J5-PDC patient-derived pancreatic carcinoma cell line growth inhibition
Conditions: for viability, T/C: stronger effect = lower value
Excerpt: Multicellular complex tumor spheroid response to LSD1 Inhibitor Iadademstat in combination with a variety of drugs and investigational agents in selected tumor cell lines
The current study was undertaken to assess response to LSD1 inhibitors in combination with standard-of-care drugs and investigational agents in solid tumor complex spheroid models as well as in the K-562 leukemia. Complex spheroids include a stromal component modeled by human endothelial cells (HUVEC) and fibroblasts modeled by human mesenchymal stem cells (MSCs). The concentration ranges selected for each drug and investigational agent were based upon clinically achievable concentrations if the clinical Cmax of the agent was known.
Compounds. The drugs and investigational agents used in this study are listed on Table 1. All of the agents used, including staurosporine (NSC755774) and gemcitabine (NSC613327), were obtained from the Developmental Therapeutics Program, NCI. FDA-approved anticancer drugs are available from the NCI at http://dtp.nci.nih.gov/branches/dscb/oncology_drugset_explanation.html. Drugs and investigational agents were >95% pure by proton nuclear magnetic resonance (NMR) and liquid chromatography/mass spectrometry (LC/MS). Stock solutions were prepared at 400x in DMSO, stored at -70 degrees C, and diluted in fresh medium prior to their use. The final concentration of DMSO in cell culture wells never exceeded 0.25% (v/v). The FDA-approved anticancer drug set is available from the Developmental Therapeutics Program at https://dtp.cancer.gov/organization/dscb/obtaining/available_plates.htm. All drugs and investigational agents were tested over a range starting from a high concentration at or near the clinical Cmax and decreasing in half-log increments. If the clinical Cmax for an agent had not been determined, the highest concentration tested was 10 microM.
Cell Lines. The patient-derived cancer cell (PDC) lines: 292921-168-R-J2-PDC, K24384-001-R-PDC, and 521955-158-R2-J5-PDC pancreatic carcinomas, 556581-035-R-J1 ovarian carcinoma, 324938-238-R-J1-PDC, 855422-203-R-J1-PDC and 883617-216-R-J1-PDC urothelial bladder carcinomas, 743489-274-T-PDC renal cell carcinoma, 138582-R-J1 Merkel cell tumor, K60290-347-R-J1 and K57222-313-R-J1-PDC glioblastomas, 653999-131-R-J2-PDC, LG0703-F948-PDC, and 349418-098-R-PDC non-small cell lung carcinomas, 885512-296-R-J2-PDC, 171881-019-R-J1-PDC breast carcinomas and 186277-243-T-J2-PDC and 233499-124-R-J2-PDC colon carcinomas were obtained from the NCI Patient-Derived Models Repository (PDMR, https://pdmr.cancer.gov). The established cell lines NCI/ADR-RES (RRID:CVCL_14520 and OVCAR-5 (RRID:CVCL_1628) ovarian carcinomas, 786-O (RRID:CVCL_1051) and A498 (RRID:CVCL_A498) renal cell carcinoma, NCI-H211 (ATCC, cat. CRL-5824; RRID:CVCL_1529), NCI-H196 (ATCC, cat. CRL-5823, RRID:CVCL_1509), SW 1271 (ATCC, cat. CRL-2177, RRID:CVCL_1716) and NCI-H1876 (ATCC, cat. CRL-5902, RRID:CVCL_1503) small cell lung carcinomas, MDA-MB-231 (RRID:CVCL_0062) and MDA-MB-468 (RRID:CVCL_0419)breast carcinomas (10-12). Pooled donor human umbilical vein endothelial cells (HUVEC, Lonza, cat. CC-2519) and human mesenchymal stem cells (hMSC, Lonza, cat. PT-2501) were purchased from Lonza (Walkersville, MD).
Cell Culture. All cells were maintained in an incubator at 37 degrees C and 5% CO2 with 95% humidity. The PDC lines were cultured according to standard operating procedures established by the NCI PDMR (https://pdmr.cancer.gov). Briefly all PDCs were thawed and cultured in Matrigel-coated flasks prepared with a working solution of 1X Ham's F-12 nutrient mix, without supplementation (Invitrogen, Waltham, MA, cat. 11765054), 100 U/mL penicillin-streptomycin (Invitrogen, cat. 15140122), and 2.5% Matrigel (Corning Inc., Corning, NY, cat. 354248) for the first three passages. […]

[1] = curve of first compound, second compound 0.1 µM
[2] = curve of first compound, second compound 0.316 µM
[3] = curve of first compound, second compound 1 µM
[4] = curve of first compound, second compound 3.16 µM
[5] = curve of first compound, second compound 10 µM
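Further: spheroids exposed to agents for seven days.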
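Wherever viability, T/C is given: percent of DMSO vehicle control luminescence viability.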

## CC1(C)CCC(CN2CCN(c3ccc(C(=O)NS(=O)(=O)c4ccc(NCC5CCOCC5)c([N+](=O)[O-])c4)c(Oc4cnc5[nH]ccc5c4)c3)CC2)=C(c2ccc(Cl)cc2)C1 + NC1CCC(NC2CC2c2ccccc2)CC1
[1]
  pIC50: 5.38
[2]
  pIC50: 5.42
[3]
  pIC50: 5.42
[4]
  pIC50: 5.51
[5]
  pIC50: 5.42
Second compound 0.1 µM, first compound 0.0316 µM
  viability, T/C: 109%
Second compound 0.1 µM, first compound 0.1 µM
  viability, T/C: 116%
Second compound 0.1 µM, first compound 0.316 µM
  viability, T/C: 112%
Second compound 0.1 µM, first compound 1 µM
  viability, T/C: 109%
Second compound 0.1 µM, first compound 3.16 µM
  viability, T/C: 66.1%
Second compound 0.1 µM, first compound 10 µM
  viability, T/C: 0.51%
Second compound 0.316 µM, first compound 0.0316 µM
  viability, T/C: 119%
Second compound 0.316 µM, first compound 0.1 µM
  viability, T/C: 113%
Second compound 0.316 µM, first compound 0.316 µM
  viability, T/C: 116%
Second compound 0.316 µM, first compound 1 µM
  viability, T/C: 111%
Second compound 0.316 µM, first compound 3.16 µM
  viability, T/C: 59.5%
Second compound 0.316 µM, first compound 10 µM
  viability, T/C: 0.64%
Second compound 1 µM, first compound 0.0316 µM
  viability, T/C: 108%
Second compound 1 µM, first compound 0.1 µM
  viability, T/C: 105%
Second compound 1 µM, first compound 0.316 µM
  viability, T/C: 108%
Second compound 1 µM, first compound 1 µM
  viability, T/C: 103%
Second compound 1 µM, first compound 3.16 µM
  viability, T/C: 58.8%
Second compound 1 µM, first compound 10 µM
  viability, T/C: 0.9%
Second compound 3.16 µM, first compound 0.0316 µM
  viability, T/C: 116%
Second compound 3.16 µM, first compound 0.1 µM
  viability, T/C: 124%
Second compound 3.16 µM, first compound 0.316 µM
  viability, T/C: 111%
Second compound 3.16 µM, first compound 1 µM
  viability, T/C: 109%
Second compound 3.16 µM, first compound 3.16 µM
  viability, T/C: 49%
Second compound 3.16 µM, first compound 10 µM
  viability, T/C: 0.91%
Second compound 10 µM, first compound 0.0316 µM
  viability, T/C: 119%
Second compound 10 µM, first compound 0.1 µM
  viability, T/C: 117%
Second compound 10 µM, first compound 0.316 µM
  viability, T/C: 117%
Second compound 10 µM, first compound 1 µM
  viability, T/C: 115%
Second compound 10 µM, first compound 3.16 µM
  viability, T/C: 59.1%
Second compound 10 µM, first compound 10 µM
  viability, T/C: 0.85%

## Nc1ccn(C2OC(CO)C(O)C2(F)F)c(=O)n1 (configuration not stated) + NC1CCC(NC2CC2c2ccccc2)CC1
[1]
  pIC50: 7.29
[2]
  pIC50: 7.26
[3]
  pIC50: 7.25
[4]
  pIC50: 7.30
[5]
  pIC50: 7.36
Second compound 0.1 µM, first compound 0.000949 µM
  viability, T/C: 105%
Second compound 0.1 µM, first compound 0.003 µM
  viability, T/C: 104%
Second compound 0.1 µM, first compound 0.00949 µM
  viability, T/C: 96.8%
Second compound 0.1 µM, first compound 0.03 µM
  viability, T/C: 68.4%
Second compound 0.1 µM, first compound 0.0949 µM
  viability, T/C: 28.4%
Second compound 0.1 µM, first compound 0.3 µM
  viability, T/C: 16.3%
Second compound 0.316 µM, first compound 0.000949 µM
  viability, T/C: 105%
Second compound 0.316 µM, first compound 0.003 µM
  viability, T/C: 98.8%
Second compound 0.316 µM, first compound 0.00949 µM
  viability, T/C: 96.2%
Second compound 0.316 µM, first compound 0.03 µM
  viability, T/C: 79.7%
Second compound 0.316 µM, first compound 0.0949 µM
  viability, T/C: 24.2%
Second compound 0.316 µM, first compound 0.3 µM
  viability, T/C: 11.2%
Second compound 1 µM, first compound 0.000949 µM
  viability, T/C: 95.3%
Second compound 1 µM, first compound 0.003 µM
  viability, T/C: 97.2%
Second compound 1 µM, first compound 0.00949 µM
  viability, T/C: 90.1%
Second compound 1 µM, first compound 0.03 µM
  viability, T/C: 74.8%
Second compound 1 µM, first compound 0.0949 µM
  viability, T/C: 29.5%
Second compound 1 µM, first compound 0.3 µM
  viability, T/C: 12.6%
Second compound 3.16 µM, first compound 0.000949 µM
  viability, T/C: 104%
Second compound 3.16 µM, first compound 0.003 µM
  viability, T/C: 96.6%
Second compound 3.16 µM, first compound 0.00949 µM
  viability, T/C: 82.6%
Second compound 3.16 µM, first compound 0.03 µM
  viability, T/C: 69.5%
Second compound 3.16 µM, first compound 0.0949 µM
  viability, T/C: 28.8%
Second compound 3.16 µM, first compound 0.3 µM
  viability, T/C: 12.8%
Second compound 10 µM, first compound 0.000949 µM
  viability, T/C: 101%
Second compound 10 µM, first compound 0.003 µM
  viability, T/C: 98%
Second compound 10 µM, first compound 0.00949 µM
  viability, T/C: 83.7%
Second compound 10 µM, first compound 0.03 µM
  viability, T/C: 63.2%
Second compound 10 µM, first compound 0.0949 µM
  viability, T/C: 26%
Second compound 10 µM, first compound 0.3 µM
  viability, T/C: 10.4%

## COc1ccc([C@@H](O)c2cc(-c3ncnc4cc(N5CCOCC5)ccc34)c(F)cc2Cl)nn1
Compound 0.0316 µM
  viability, T/C: 99.8% and 97.6%
Compound 0.1 µM
  viability, T/C: 87% and 104%
Compound 0.316 µM
  viability, T/C: 73.6% and 84.4%
Compound 1 µM
  viability, T/C: 57.1% and 63.2%
Compound 3.16 µM
  viability, T/C: 38.6% and 57.8%
Compound 10 µM
  viability, T/C: 22.4% and 24.5%
Curve of compound
  pIC50: 5.81 and 5.47
